{"source": "patent US20230310459A1", "about": "“NEUROACTIVE STEROIDS AND THEIR METHODS OF USE” (Sage Therapeutics, Inc., priority 2017, published 2023)", "tested_on": "Adult patients with moderate to severe Major Depressive Disorder (MDD)", "assay": "Phase 2 double-blind placebo-controlled trial (Part B): HAM-D efficacy", "assay_type": "in vivo, human", "experimental": "In the randomized, double-blind, parallel-group, placebo-controlled trial, eligible patients (with a minimum total score of 22 on the Hamilton Rating Scale for Depression) were stratified based on use of antidepressant treatment (current/stable or not treated/withdrawn ≥30 days) and randomized in a 1:1 ratio to receive Compound 1 Capsules (30 mg) or matching placebo. All doses of study drug were administered at night with food. The study consisted of a 14-day treatment period, and a 4-week follow-up period. The mean HAM-D total scores at baseline were 25.2 for the Compound 1 group and 25.7 for the placebo group (overall range 22-33), representing patients with moderate to severe MDD. Approximately 90 percent of patients in each group completed the study."}
{"smiles": "C[C@@]1(O)CC[C@H]2[C@H](CC[C@@H]3[C@@H]2CC[C@]2(C)[C@@H](C(=O)Cn4cc(C#N)cn4)CC[C@@H]32)C1", "note": "[Compound 1, 1-(2-((3R,5R,8R,9R,10S,13S,14S,17S)-3-hydroxy-3,13-dimethylhexadecahydro-1H-cyclopenta[a]phenanthren-17-yl)-2-oxoethyl)-1H-pyrazole-4-carbonitrile]", "values": [{"measurement": "onset of improvement in HAM-D total score compared to placebo", "setting": "Capsules 30 mg at night with food", "value": "significant by the morning following the first dose (Day 2)"}, {"measurement": "HAM-D total score, mean reduction from baseline", "setting": "Day 15, Capsules 30 mg at night with food for 14 days, baseline 25.2, placebo 10.7", "value": 17.6, "unit": "points"}, {"measurement": "HAM-D total score, least squared mean difference from placebo", "setting": "Day 15, p<0.0001", "value": "−7.0"}, {"measurement": "remission rate (HAM-D total score not more than 7)", "setting": "Day 15, placebo 23 percent, p=0.0005", "value": 64, "unit": "%"}, {"measurement": "HAM-D total score, mean reduction from baseline", "setting": "Week 4, placebo 11.9, p=0.0243", "value": 15.6}, {"measurement": "remission rate", "setting": "Week 4, placebo 28 percent, p=0.0221", "value": 52, "unit": "%"}, {"measurement": "HAM-D total score, mean reduction from baseline", "setting": "Week 6, placebo 13.0, not statistically improved", "value": 15.0}, {"measurement": "remission rate", "setting": "Week 6, placebo 33 percent, not significant", "value": 45, "unit": "%"}]}
